Our source for the EC50 values is patent publication US9233964B2, “Sulfamide piperazine derivatives as protein tyrosine kinase inhibitors and pharmaceutical use therof” (LEO PHARMA A/S, priority 2011, dated 2016).

By EC50 is commonly meant the concentration at which the effect is half-maximal.

What all share (format): biochemical
The target in one assay is T1, JAK3 (Homo sapiens, UniProt P52333).
T1 construct: All four purified enzymes contain only the catalytic domain; His (N); purchased Carna Biosciences, Inc; host or cells: baculovirus expression system
The experiment in a line: JAK kinase assay (HTRF, phosphorylation of synthetic peptide), JAK3. To be noted: catalytic domain, ATP at Km (2 μM); read-out: JAK3 kinase inhibitory activity (EC50). How it is done: (§1) Human baculovirus-expressed JAK1, 2, 3 and TYK2 were purchased from Carna Biosciences, Inc. All four purified enzymes contain only the catalytic domain. JAK1 (aa 850-1154) and TYK2 (aa 871-1187) are expressed with an N-terminally fused GST-tag, and JAK2 and JAK3 with an N-terminally fused His-tag.
(§2) Inhibition of phosphorylation of a synthetic peptide was measured in an HTRF-based assay using the TK substrate-Biotin from the Cisbio HTRFKinEASE TK kit. First, 2 μl of TK solution (TK substrate-biotin in kinase buffer [1× enzymatic buffer from HTRFKinEASE TK kit, 1 mM DTT]) is added to a plate containing 1 μl prediluted compound (final assay concentration DMSO: 0.75%). Then, 5 μl kinase-ATP mix (prepared in kinase buffer) is added to the wells and the plates are incubated at RT for 20-30 min. For all four kinases a concentration of ATP that corresponded to the Km for ATP was used. The final concentrations of buffers, substrate, kinase and ATP were: JAK1: 50 mM Hepes buffer pH 7.0, 0.01% BSA, 10 mM MgCl2, 1 mM DTT, 7 μM ATP, 50 nM SEB, 1 μM TK Substrate-Biotin and 5 ng JAK1; JAK2: 50 mM Hepes buffer pH 7.0, 0.01% BSA, 5 mM MgCl2, 1 mM DTT, 4 μM ATP, 1 μM TK Substrate-Biotin and 0.1 ng JAK2; JAK3: 50 mM Hepes buffer pH 7.0, 0.01% BSA, 5 mM MgCl2, 1 mM DTT, 2 μM ATP, 1 μM TK Substrate-Biotin and 0.3 ng JAK3; TYK2: 50 mM Hepes buffer pH 7.0, 0.01% BSA, 5 mM MgCl2, 1 mM DTT, 13 μM ATP, 50 nM SEB, 1 μM TK Substrate-Biotin and 0.8 ng TYK2. Thereafter, the kinase reaction is stopped by adding 4 μl detection mix (final concentrations: 50 mM Hepes buffer pH 7.0, 0.01% BSA, 0.8 M KF, 20 mM EDTA, 42 nM Streptavidin-XL665 and 1:400 STK Ab Cryptate) and the plates are incubated overnight in the dark. The HTRF signal is read using an Envision plate reader.
(In general: Time-resolved FRET reads energy transfer from a long-lived donor to a nearby acceptor.)

In a further assay the target is T2, JAK1 (Homo sapiens, UniProt P23458).
T2 construct: JAK1 (aa 850-1154) and TYK2 (aa 871-1187) are expressed with an N-terminally fused GST-tag; GST (N); purchased Carna Biosciences, Inc; host or cells: baculovirus expression system
As to the kind of experiment: JAK kinase assay (HTRF, phosphorylation of synthetic peptide), JAK1. To be noted: catalytic domain, ATP at Km (7 μM); read-out: JAK1 kinase inhibitory activity (EC50). The method, then: as §1, §2

Another assay has as its target T3, JAK2 (Homo sapiens, UniProt O60674).
T3 construct: All four purified enzymes contain only the catalytic domain; His (N); purchased Carna Biosciences, Inc; host or cells: baculovirus expression system
The experiment in a line: JAK kinase assay (HTRF, phosphorylation of synthetic peptide), JAK2. To be noted: catalytic domain, ATP at Km (4 μM); read-out: JAK2 kinase inhibitory activity (EC50). How it is done:
as §1, §2

A further assay concerns the target T4, TYK2 (Homo sapiens, UniProt P29597).
T4 construct: JAK1 (aa 850-1154) and TYK2 (aa 871-1187) are expressed with an N-terminally fused GST-tag; GST (N); purchased Carna Biosciences, Inc; host or cells: baculovirus expression system
T4 sequence (P29597 871-1187): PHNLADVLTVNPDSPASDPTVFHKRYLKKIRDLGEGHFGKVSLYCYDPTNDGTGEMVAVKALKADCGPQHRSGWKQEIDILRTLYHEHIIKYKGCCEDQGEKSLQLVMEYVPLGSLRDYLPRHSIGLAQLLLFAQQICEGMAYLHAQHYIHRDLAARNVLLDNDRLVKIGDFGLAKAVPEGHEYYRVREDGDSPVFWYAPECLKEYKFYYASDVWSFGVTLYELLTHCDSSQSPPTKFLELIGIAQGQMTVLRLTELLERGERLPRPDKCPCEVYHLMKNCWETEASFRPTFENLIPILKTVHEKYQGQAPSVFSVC
The experiment in a line: JAK kinase assay (HTRF, phosphorylation of synthetic peptide), TYK2. To be noted: catalytic domain, ATP at Km (13 μM); read-out: TYK2 kinase inhibitory activity (EC50). How it is done: as §1, §2

T1 sequence (P52333 822-1111 limits assumed): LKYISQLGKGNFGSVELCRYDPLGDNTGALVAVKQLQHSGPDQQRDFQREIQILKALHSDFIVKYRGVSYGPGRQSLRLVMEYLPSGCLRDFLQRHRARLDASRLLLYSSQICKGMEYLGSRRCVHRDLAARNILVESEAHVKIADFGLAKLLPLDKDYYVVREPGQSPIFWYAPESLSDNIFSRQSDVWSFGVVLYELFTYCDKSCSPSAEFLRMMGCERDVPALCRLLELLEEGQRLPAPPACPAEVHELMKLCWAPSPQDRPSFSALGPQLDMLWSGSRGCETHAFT
T3 sequence (O60674 849-1124 limits assumed): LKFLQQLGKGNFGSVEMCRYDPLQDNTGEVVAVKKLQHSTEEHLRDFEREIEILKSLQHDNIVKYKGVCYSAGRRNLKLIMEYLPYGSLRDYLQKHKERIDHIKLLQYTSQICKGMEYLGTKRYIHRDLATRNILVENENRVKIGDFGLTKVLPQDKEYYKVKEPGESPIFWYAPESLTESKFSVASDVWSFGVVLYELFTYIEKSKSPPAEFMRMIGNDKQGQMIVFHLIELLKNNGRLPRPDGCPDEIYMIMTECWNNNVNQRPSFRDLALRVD
T2 sequence (P23458 850-1154): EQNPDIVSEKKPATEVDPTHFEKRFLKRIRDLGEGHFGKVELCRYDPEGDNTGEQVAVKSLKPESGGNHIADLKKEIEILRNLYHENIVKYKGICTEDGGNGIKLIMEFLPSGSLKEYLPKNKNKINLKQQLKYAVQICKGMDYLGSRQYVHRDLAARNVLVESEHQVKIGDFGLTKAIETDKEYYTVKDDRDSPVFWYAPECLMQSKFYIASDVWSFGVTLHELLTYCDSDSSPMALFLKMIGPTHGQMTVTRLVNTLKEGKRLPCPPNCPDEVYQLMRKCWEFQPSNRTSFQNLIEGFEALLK

Consider `O=S(=O)(N(CCc1ccccc1)CCc1ccc(F)cc1)N1CCN(c2ncnc3[nH]ccc23)CC12CC2` [Example 47, 7-(7H-Pyrrolo[2,3-d]pyrimidin-4-yl)-4,7-diaza-spiro[2.5]octane-4-sulfonic acid [2-(4-fluoro-phenyl)-ethyl]-phenethyl-amide], for which the EC50 at JAK3 is above 500 nM; at JAK1, 100 to 500 nM; at JAK2, 100 to 500 nM; on TYK2, above 500 nM.

In the case of `COCCN(C1CCC1)S(=O)(=O)N1CCN(c2ncnc3[nH]ccc23)CC12CC2` [Example 103, N-cyclobutyl-N-(2-methoxyethyl)-5-(7H-pyrrolo[2,3-d]pyrimidin-4-yl)-5,8-diazaspiro[2.5]octane-8-sulfonamide], the EC50 is 100 to 500 nM on JAK3, below 100 nM at JAK1, below 100 nM on JAK2 and 100 to 500 nM on TYK2.

Consider `CCC(=O)N1CCC(CN(C)S(=O)(=O)N2CCN(c3ncnc4[nH]ccc34)CC23CC3)C1` (stereo not drawn) [Example 125, N-methyl-N-[(1-propanoylpyrrolidin-3-yl)methyl]-5-(7H-pyrrolo[2,3-d]pyrimidin-4-yl)-5,8-diazaspiro[2.5]octane-8-sulfonamide], for which the 50% effective concentration (EC50) at JAK3 is 100 to 500 nM; on JAK1 it was below 100 nM; at JAK2, below 100 nM; on TYK2, above 500 nM.

`Cc1noc(C)c1CCN(C)S(=O)(=O)N1CCN(c2ncnc3[nH]ccc23)CC12CC2` [Example 32, 7-(7H-Pyrrolo[2,3-d]pyrimidin-4-yl)-4,7-diaza-spiro[2.5]octane-4-sulfonic acid [2-(3,5-dimethyl-isoxazol-4-yl)-ethyl]-methyl-amide]: the EC50 was below 100 nM at JAK3, below 100 nM on JAK1, below 100 nM at JAK2 and 100 to 500 nM at TYK2.

For the compound `N#CC1CCCN(S(=O)(=O)N2CCN(c3ncnc4[nH]ccc34)CC23CC3)C1` (stereo not drawn) [Example 42, 1-[7-(7H-Pyrrolo[2,3-d]pyrimidin-4-yl)-4,7-diaza-spiro[2.5]octane-4-sulfonyl]-piperidine-3-carbonitrile], the half-maximal effective concentration (EC50) at JAK3 was 100 to 500 nM; at JAK1, below 100 nM; on JAK2, below 100 nM; on TYK2 it was above 500 nM.

As to `CCN(C(C)C)S(=O)(=O)N1CCN(c2ncnc3[nH]ccc23)CC12CC2` [Example 95, N-ethyl-N-isopropyl-5-(7H-pyrrolo[2,3-d]pyrimidin-4-yl)-5,8-diazaspiro[2.5]octane-8-sulfonamide], the EC50 on JAK3 was 100 to 500 nM; at JAK1 it was 100 to 500 nM; at JAK2, below 100 nM; on TYK2 it was above 500 nM.

As to `CN(CC1CCC(F)(F)CC1)S(=O)(=O)N1CCN(c2ncnc3[nH]ccc23)CC12CC2` [Example 62, N-[(4,4-difluorocyclohexyl)methyl]-N-methyl-5-(7H-pyrrolo[2,3-d]pyrimidin-4-yl)-5,8-diazaspiro[2.5]octane-8-sulfonamide], the concentration for a half-maximal effect (EC50) on JAK3, on JAK1, at JAK2 and on TYK2 was below 100 nM each time.

As to `N#CCCNS(=O)(=O)N1CCN(c2ncnc3[nH]ccc23)CC12CC2` [Int 40], the concentration giving a half-maximal response (EC50) at JAK3 is below 100 nM; on JAK1, below 100 nM; on JAK2, below 100 nM; at TYK2, above 500 nM.

In the case of `CN(C[C@H]1CCCN1C(=O)C(O)CO)S(=O)(=O)N1CCN(c2ncnc3[nH]ccc23)CC12CC2` (stereo partly drawn) [Example 186, N-[[(2R)-1-(2,3-dihydroxypropanoyl)pyrrolidin-2-yl]methyl]-N-methyl-5-(7H-pyrrolo[2,3-d]pyrimidin-4-yl)-5,8-diazaspiro[2.5]octane-8-sulfonamide], the half-maximal effective concentration (EC50) on JAK3, on JAK1, at JAK2 and at TYK2 was below 100 nM each time.

For the compound `CN(CC1CCCN(S(=O)(=O)CCCC#N)C1)S(=O)(=O)N1CCN(c2ncnc3[nH]ccc23)CC12CC2` (stereo not drawn) [Example 161, N-[[1-(3-cyanopropylsulfonyl)-3-piperidyl]methyl]-N-methyl-5-(7H-pyrrolo[2,3-d]pyrimidin-4-yl)-5,8-diazaspiro[2.5]octane-8-sulfonamide], the concentration giving a half-maximal response (EC50) at JAK3 was 100 to 500 nM; on JAK1, below 100 nM; at JAK2 it was below 100 nM; on TYK2, above 500 nM.

For `CN(C[C@H]1CCCN1C(=O)CC#N)S(=O)(=O)N1CCN(c2ncnc3[nH]ccc23)CC12CC2` [Example 189, N-[[(2R)-1-(2-cyanoacetyl)pyrrolidin-2-yl]methyl]-N-methyl-5-(7H-pyrrolo[2,3-d]pyrimidin-4-yl)-5,8-diazaspiro[2.5]octane-8-sulfonamide], the EC50 at JAK3 was below 100 nM; on JAK1, below 100 nM; on JAK2, below 100 nM; at TYK2, 100 to 500 nM.

As for `CN(C(=O)CCC1CCS(=O)(=O)C1)S(=O)(=O)N1CCN(c2ncnc3[nH]ccc23)CC12CC2` (stereo not drawn) [Example 137, 3-(1,1-dioxothiolan-3-yl)-N-methyl-N-[[5-(7H-pyrrolo[2,3-d]pyrimidin-4-yl)-5,8-diazaspiro[2.5]octan-8-yl]sulfonyl]propanamide], the concentration for a half-maximal effect (EC50) was 100 to 500 nM on JAK3, below 100 nM at JAK1, below 100 nM on JAK2 and above 500 nM on TYK2.

For the compound `CN(Cc1ccccc1)S(=O)(=O)N1CCN(c2ncnc3[nH]ccc23)CC12CC2` [Example 52, 7-(7H-Pyrrolo[2,3-d]pyrimidin-4-yl)-4,7-diaza-spiro[2.5]octane-4-sulfonic acid benzyl-methyl-amide], the EC50 on JAK3 was below 100 nM; at JAK1, below 100 nM; at JAK2, below 100 nM; on TYK2, 100 to 500 nM.

For `CN(CC1CCN(C=O)C1)S(=O)(=O)N1CCN(c2ncnc3[nH]ccc23)CC12CC2` (stereo not drawn) [Example 128, N-[(1-formylpyrrolidin-3-yl)methyl]-N-methyl-5-(7H-pyrrolo[2,3-d]pyrimidin-4-yl)-5,8-diazaspiro[2.5]octane-8-sulfonamide], the EC50 was below 100 nM on JAK3, below 100 nM on JAK1, below 100 nM at JAK2 and above 500 nM at TYK2.

With `O=S(=O)(NCCc1ccccc1)N1CCN(c2ncnc3[nH]ccc23)CC12CC2` [Int 5], the concentration giving a half-maximal response (EC50) at JAK3 is 100 to 500 nM; at JAK1, below 100 nM; on JAK2, below 100 nM; on TYK2, above 500 nM.

Turning to `N#CCCCN(CCO)S(=O)(=O)N1CCN(c2ncnc3[nH]ccc23)CC12CC2` [Example 110, N-(3-cyanopropyl)-N-(2-hydroxyethyl)-5-(7H-pyrrolo[2,3-d]pyrimidin-4-yl)-5,8-diazaspiro[2.5]octane-8-sulfonamide], the EC50 at JAK3 was below 100 nM; on JAK1, below 100 nM; on JAK2 it was below 100 nM; at TYK2 it was 100 to 500 nM.

Regarding `O=S(=O)(N(CCc1ccccc1)CCn1cccn1)N1CCN(c2ncnc3[nH]ccc23)CC12CC2` [Example 24, 7-(7H-Pyrrolo[2,3-d]pyrimidin-4-yl)-4,7-diaza-spiro[2.5]octane-4-sulfonic acid phenethyl-(2-pyrazol-1-yl-ethyl)-amide], the concentration giving a half-maximal response (EC50) was below 100 nM at JAK3, below 100 nM at JAK1, below 100 nM on JAK2 and 100 to 500 nM on TYK2.

As for `CN(CC1CCOCC1)S(=O)(=O)N1CCN(c2ncnc3[nH]ccc23)CC12CC2` [Example 89, N-methyl-5-(7H-pyrrolo[2,3-d]pyrimidin-4-yl)-N-(tetrahydropyran-4-ylmethyl)-5,8-diazaspiro[2.5]octane-8-sulfonamide], the EC50 at JAK3 is 100 to 500 nM; at JAK1 it was below 100 nM; at JAK2 it was below 100 nM; at TYK2 it was 100 to 500 nM.
